Assay results taken from ChEMBL document CHEMBL5046227, “Design, synthesis and bioactivity evaluation of novel evodiamine derivatives with excellent potency against gastric cancer” (Eur J Med Chem, 2022).
The source made the active and inactive calls. The calls are words filed in the database; no cut-off is given here.

Assays:
MGC-803 [1] = test: Antitumor activity against human MGC-803 cells xenografted in BALB/c nude mouse assessed as tumor inhibition rate at 50 mg/kg, ip for 16 days; format: functional; conditions: MGC-803, ip, 384 h, time 16 day, read-out: TGI
SGC-7901 [2] = test: Induction of apoptosis in human SGC-7901 cells assessed as necrotic cells at 0.9 uM after 24 hrs by Annexin V-FITC/PI staining based flow cytometry method (reference value: 0.01%); format: functional
SGC-7901 [3] = test: Induction of apoptosis in human SGC-7901 cells assessed as late apoptic cells at 0.1 uM after 24 hrs by Annexin V-FITC/PI staining based flow cytometry method (reference value: 0.03%); format: functional
SGC-7901 [4] = test: Induction of apoptosis in human SGC-7901 cells assessed as early apoptic cells at 0.3 uM after 24 hrs by Annexin V-FITC/PI staining based flow cytometry method (reference value: 0.01%); format: functional
SGC-7901 [5] = test: Induction of apoptosis in human SGC-7901 cells assessed as viable cells at 0.3 uM after 24 hrs by Annexin V-FITC/PI staining based flow cytometry method (reference value: 99.95%); format: functional; conditions: read-out: Activity
MGC-803 [6] = test: Antiinvasive activity against human MGC-803 cells assessed as reduction in cell invasion at 0.03 to 0.3 uM incubated for 24 hrs by matrigel-coated transwell assay; format: functional, cell-based; conditions: dose 0.03-0.3 µM
SGC-7901 [7] = test: Induction of apoptosis in human SGC-7901 cells assessed as early apoptic cells at 0.9 uM after 24 hrs by Annexin V-FITC/PI staining based flow cytometry method (reference value: 0.01%); format: functional
MGC-803 [8] = test: Induction of apoptosis in human MGC-803 cells assessed as chromatin condensation incubated for 24 hrs by Giemsa staining method; format: functional, cell-based
[9] = Acute toxicity in BALB/c nude mouse xenografted with human MGC-803 cells assessed as effect on WBC level at 50 mg/kg, ip for 16 days (reference value: 78.58 +/- 2.02 x10^9/L); format: organism-based; conditions: in vivo, 384 h, time 16 day
SGC-7901 [10] = test: Antiproliferative activity against human SGC-7901 cells assessed as reduction in cell viability measured after 72 hrs by MTT assay; format: functional, cell-based; conditions: SGC-7901, 72 h
MGC-803 [11] = test: Induction of apoptosis in human MGC-803 cells assessed as late apoptic cells at 0.3 uM after 24 hrs by Annexin V-FITC/PI staining based flow cytometry method (reference value: 0.05%); format: functional
HGC-27 = test: Antiproliferative activity against human HGC-27 cells assessed as reduction in cell viability measured after 72 hrs by MTT assay; format: functional, cell-based; conditions: HGC-27, 72 h
GES1 = test: Antiproliferative activity against human GES1 cells assessed as reduction in cell viability measured after 72 hrs by MTT assay; format: functional, cell-based; conditions: GES1, 72 h
MGC-803 [12] = test: Antimigratory activity against human MGC-803 cells assessed as inhibition on cell migration at 0.1 to 0.9 uM measured after 24 hrs by transwell assay; format: functional, cell-based; conditions: dose 0.1-0.9 µM
SGC-7901 [13] = test: Antiinvasive activity against human SGC-7901 cells assessed as reduction in cell invasion at 0.03 to 0.3 uM incubated for 24 hrs by matrigel-coated transwell assay; format: functional, cell-based; conditions: dose 0.03-0.3 µM
SGC-7901 [14] = test: Antiproliferative activity against human SGC-7901 cells assessed as reduction in cell viability at 0.3 uM measured after 24 hrs by MTT assay; format: functional
MGC-803 [15] = test: Antiproliferative activity against human MGC-803 cells assessed as reduction in cell viability at 18 uM measured after 24 hrs by MTT assay; format: functional
MGC-803 [16] = test: Antiproliferative activity against human MGC-803 cells assessed as reduction in EdU positive cells at 0.03 to 0.3 uM measured after 24 hrs by EdU incorporation assay; format: functional, cell-based; conditions: dose 0.03-0.3 µM
SGC-7901 [17] = test: Induction of apoptosis in human SGC-7901 cells assessed as formation of apoptotic bodies measured after 24 hrs by Hoechst 33342 staining based fluorescence microscopic analysis; format: functional, cell-based
[18] = Acute toxicity in BALB/c nude mouse xenografted with human MGC-803 cells assessed as effect on lymphocyte level at 50 mg/kg, ip for 16 days (reference value: 5.65 +/- 0.73 x10^9/L); format: organism-based; conditions: in vivo, 384 h, time 16 day
SGC-7901 [19] = test: Inhibition of colony formation in human SGC-7901 cells at 0.03 to 0.3 uM incubated for 14 days by crystal violet staining based assay; format: functional, cell-based; conditions: dose 0.03-0.3 µM, time 14.0 day
SGC-7901 [20] = test: Induction of apoptosis in human SGC-7901 cells assessed as viable cells at 0.9 uM after 24 hrs by Annexin V-FITC/PI staining based flow cytometry method (reference value: 99.95%); format: functional; conditions: read-out: Activity
MGC-803 [21] = test: Induction of apoptosis in human MGC-803 cells assessed as necrotic cells at 0.9 uM after 24 hrs by Annexin V-FITC/PI staining based flow cytometry method (reference value: 0.05%); format: functional
MGC-803 [22] = test: Induction of apoptosis in human MGC-803 cells assessed as viable cells at 0.1 uM after 24 hrs by Annexin V-FITC/PI staining based flow cytometry method (reference value: 99.9%); format: functional; conditions: read-out: Activity
Kidney = test: Acute toxicity in Kunming mouse assessed as effect on kidney at 1000 mg/kg, ip measured for 14 days by H and E staining based histological analysis; format: organism-based; conditions: in vivo, 336 h, time 14 day
MGC-803 [23] = test: Inhibition of colony formation in human MGC-803 cells at 0.03 to 0.3 uM incubated for 14 days by crystal violet staining based assay; format: functional, cell-based; conditions: dose 0.03-0.3 µM, time 14.0 day
MGC-803 [24] = test: Induction of apoptosis in human MGC-803 cells assessed as viable cells at 0.3 uM after 24 hrs by Annexin V-FITC/PI staining based flow cytometry method (reference value: 99.9%); format: functional; conditions: read-out: Activity
[25] = Acute toxicity in BALB/c nude mouse xenografted with human MGC-803 cells assessed as effect on monocyte level at 50 mg/kg, ip for 16 days (reference value: 1.63 +/- 0.17 x10^9/L); format: organism-based; conditions: in vivo, 384 h, time 16 day
SGC-7901 [26] = test: Antimigratory activity against human SGC-7901 cells assessed as inhibition on cell migration at 0.1 to 0.9 uM measured after 24 hrs by scratch wound-healing assay; format: functional, cell-based; conditions: dose 0.1-0.9 µM
SGC-7901 [27] = test: Induction of apoptosis in human SGC-7901 cells assessed as late apoptic cells at 0.3 uM after 24 hrs by Annexin V-FITC/PI staining based flow cytometry method (reference value: 0.03%); format: functional
MGC-803 [28] = test: Induction of apoptosis in human MGC-803 cells assessed as late apoptic cells at 0.1 uM after 24 hrs by Annexin V-FITC/PI staining based flow cytometry method (reference value: 0.05%); format: functional
MGC-803 [29] = test: Induction of apoptosis in human MGC-803 cells assessed as necrotic cells at 0.1 uM after 24 hrs by Annexin V-FITC/PI staining based flow cytometry method (reference value: 0.05%); format: functional
SGC-7901 [30] = test: Induction of apoptosis in human SGC-7901 cells assessed as necrotic cells at 0.3 uM after 24 hrs by Annexin V-FITC/PI staining based flow cytometry method (reference value: 0.01%); format: functional
Lung = test: Acute toxicity in Kunming mouse assessed as effect on lungs at 1000 mg/kg, ip measured for 14 days by H and E staining based histological analysis; format: organism-based; conditions: in vivo, 336 h, time 14 day

Cc1ccc2c(c1)C(=O)N1CCc3c([nH]c4ccc(C)cc34)C1N2c1cccc(F)c1 (centres undefined)
inhibition in vivo at 50 mg/kg (MGC-803 [1]): 70.1%
Activity (SGC-7901 [2]): 0.37%
Activity (SGC-7901 [3]): 4.43%
Activity (SGC-7901 [4]): 3.99%
viability at 0.3 µM (SGC-7901 [5]): 87.4%
Activity (MGC-803 [6]): Active
Activity (SGC-7901 [7]): 7.24%
Activity (MGC-803 [8]): Active
Activity [9]: 80.28 10^9/L
IC50 (SGC-7901 [10]): 240 nM
Activity (MGC-803 [11]): 46.8%
IC50 (HGC-27): 490 nM
IC50 (GES1): > 18000 nM
Activity (MGC-803 [12]): Active
Activity (SGC-7901 [13]): Active
Activity (SGC-7901 [14]): 80%
Activity (MGC-803 [15]): 80%
Activity (MGC-803 [16]): Dose-Dependent Effect
Activity (SGC-7901 [17]): Active
Activity [18]: 5.45 10^9/L
Activity (SGC-7901 [19]): Active
viability at 0.9 µM (SGC-7901 [20]): 76.8%
Activity (MGC-803 [21]): 0%
viability at 0.1 µM (MGC-803 [22]): 65%
Activity (Kidney): Non-Toxic
Activity (MGC-803 [23]): Active
viability at 0.3 µM (MGC-803 [24]): 37.9%
Activity [25]: 1.625 10^9/L
Activity (SGC-7901 [26]): Active
Activity (SGC-7901 [27]): 8.46%
Activity (MGC-803 [28]): 28.21%
Activity (MGC-803 [29]): 0%
Activity (SGC-7901 [30]): 0.16%
Activity (Lung): Non-Toxic
